In US20070041904A1, “Peptides whose uptake by cells is controllable” (priority 2003, published 2007):

Experiments:
[1] = test system: human squamous cell carcinoma specimens; assay: Staining of freshly resected squamous cell carcinoma slices
Protocol: Squamous Cell Carcinoma Specimens. Human squamous cell carcinoma specimens from planned resections of neoplasms were collected postoperatively according to a protocol with institutional review board approval. The specimens were in ice-cold normal saline for 30 min during transport back to the laboratory, where they were cut by hand to ≈1-mm-thick slices, added to 1 ml of 1 μM peptide for 15 min at room temperature, rinsed five times for 2 min in 1 ml of HBSS, cryosectioned, and imaged as described above.
ACPPs Light Up Human Squamous Cell Carcinomas. Although human tumor cell lines xenografted into immunodeficient mice are popular cancer models, they fail to mimic many aspects of real human tumors. […] Contrast, defined as (tumor tissue fluorescence−autofluorescence)/(normal tissue fluorescence−autofluorescence), was almost eight in this example. […]
Images from tumor tissue treated with cleavable peptide are much clearer than are images from similar tumor tissue treated with “scrambled” uncleavable peptides and are much clearer than images from normal tongue tissue treated with cleavable peptide. […] Sections were taken for fluorescence microscopy using a low-power objective, and tissue type was verified by staining tissue. […]

[2] = test system: HT1080 xenografts and mouse tissues; assay: Biodistribution of radiolabeled ACPPs in mice with HT1080 xenografts; type: in vivo, nude mice
Protocol: FIG. 50: Biodistribution of ^99mTc-labeled albumin-ACPP. Mice xenografted as in FIG. 49 were sacrificed at 6, 24, and 48 hr after injection, organs were dissected, weighed, and radioactivity counted within 2 hrs to obtain % injected dose (% ID)/g tissue as shown in the bar graph (means±s.d., n=4 per time point). The inset table gives the corresponding mean standardized uptake values (SUV) defined as animal weight×(% ID/g tissue).
Serial scans were performed using the Biospace small animal planar scintigraphic imager. The % ID/g (% injected dose retained per gram of tissue) was measured by scintillation counting of tissues harvested post-mortem. The inventors have tested the above ACPPs and three other ^99mTc-labeled ACPPs: (70 KDa-dextran)-e9-XPLGLAG-r9-[DPK-^99mTc(CO)3], (murine serum albumin)-e9-XPLGLAG-r9-[DPK-^99mTc(CO)3], and (PAMAM generation 5 dendrimer)-e9-XPLGLAX-r9-[DPK-^99mTc(CO)3]. […] The tumor margins, however, appear relatively well-defined at earlier time points (see FIG. 48).
Because the ratio of tumor to liver uptake was at variance with the results obtained with fluorescent and magnetic labels and because of the limited literature on the use of DPK, the inventors tested whether the DPK chelator could be responsible for the affinity for normal tissues. Thus, the inventors synthesized and tested (70 KDa dextran)-e9-XPLGLAX-r9-(DOTA-^111In).

[3] = test system: MMP-9; assay: Fluorescence change upon enzymatic cleavage of self-quenching / FRET ACPPs; type: biochemical
Source text: (§1) Thus, such molecules may be administered in vivo, and are cleaved in vivo.
ACPPs with self-quenching fluorophores [Cy5-X-e6-XPLGLAG-r9-Xk(Cy5)] or FRET pairs [Cy7-X-e6-XPLGLAG-r9-Xk(Cy5)] were synthesized. […] The inventors have found these two substrates to be poorly soluble in physiological media, even though the inventors decreased the number of glutamate residues from nine to six so that the molecules would carry more net charge.

[4] = test system: Enterokinase; assay: Peptide cleavage by enterokinase monitored by HPLC; type: biochemical; settings: 0.38 mM peptide stock, 1 U/μl enterokinase
Protocol: 10 μl 0.38 mM peptide dissolved in water stock solution was added to 10 μl 1 U/μl Enterokinase (Invitrogen, EKmax) and the cleavage progress was monitored by injecting 5 μl of the reaction mixture on HPLC monitored at 440 nm. The peptide was designed to be a substrate for enterokinase, with cleavage by enterokinase expected between the K and A residues. A High Performance Liquid Chromatography (HPLC) chromatogram of the peptide EDDDDKA-aca-R9-aca-C(Fl)-CONH2 (SEQ ID NO: 3) (before cleavage of linker portion between K and A) is illustrated in FIG. 6A. […] FIG. 6B illustrates the HPLC chromatogram of the peptide of FIG. 6A after cleavage by enterokinase. The new peak was collected and determined on a mass spectrometer. The determined mass corresponded (as expected) to cleavage between K and A in the sequence of EDDDDKA-aca-R9-aca-C(Fl)-CONH2. (SEQ ID NO: 3)
ACPP Cleavage by Enterokinase: 10 μl of a 0.38 mM peptide stock solution dissolved in water was mixed with 10 μl 1 U/μl enterokinase (Invitrogen) and incubated at 37° C. Enzymatic cleavage was monitored by injecting 5 μl of the reaction mixture on HPLC and observing either UVvis absorbance at 440 nm for fluorescein labeled or 650 nm for Cy5 labeled peptide. […] The new peaks were collected and their identities were determined by mass spectroscopy.

[5] = test system: HT-1080 tumors and mouse tissues; assay: Standardized uptake values in tissues after peptide injection; type: in vivo, mice; settings: 1 hr after injection
Protocol: Xenografts in Mice. Nude mice (age, 4-6 weeks) were injected s.c. with ≈10^6 HT-1080 cells. Once the tumors had reached ≈5-7 mm in size (typically 1-2 weeks later), animals were anesthetized with 100 mg/kg ketamine and 5 mg/kg midazolam), weighed, and injected with ≈100 μl of 60 μM peptide through the tail vein. Animals were then imaged at various times by using a Nikon f/1.2 camera lens in front of a cooled charge-coupled device camera (SenSys, Photometrics, Tucson, Ariz.). For longer lasting imaging studies, animals were allowed to wake up after 2 h of anesthesia and were reanesthetized at ≈4 and 6 hr for further data collection. Plasma half-lives were determined by the decrease in fluorescence intensity of ≈5-μl blood samples withdrawn periodically into heparinized capillaries. After imaging was ended, animals were killed with halothane, and organs of interest were harvested and weighed. For frozen sectioning, tissues were added to OCT cryopreservative and frozen on dry ice and hexane. […] Cy5 fluorescence was imaged as described above. […] Two sets of standards (liver and kidney) were used to calibrate fluorescence intensity in terms of peptide concentration. From this calibration, the quantity of peptide in 30 mg of tissue for each organ was calculated. SUVs were calculated as the molality of peptide in the tissue divided by the total injected dose as mol/kg of body weight. […]

[6] = test system: tumor, kidney and liver of xenografted mice; assay: Cyclic ACPP tested in xenografted mice; type: in vivo
Protocol: as §1
To generate cyclic peptides, the inventors synthesized cyclic[succinoyl-PLGLAG-c(11 KDa-mPEG)-e9-XPLGLAG-r9-K]-k(Cy5), which contains two cleavage sites. This cyclic ACCP was tested in xenografted mice. […] Thus, the cyclic substrate requiring two cleavages should favor the liver to an even greater extent. One of skill in the art would recognize that once peptide sequences (preferably two distinct ones) were obtained that individually are preferentially cleaved in the tumor over the liver, then the two-cut ACPPs would become advantageous for the practice of this invention.

## (5 kDa PEG)-eeeeeeeeeXPLGLAG-rrrrrrrrrXk(Cy5) [cleavable peptide]
[1]; mean±SD, two patients
  contrast, relatively differentiated oral cavity_oropharynx tumors: 2.7±0.2
[1]; two tumors
  contrast, high-grade laryngeal tumors: 6.5±3.4

## (murine serum albumin)-e9-XPLGLAG-r9-[DPK-^99mTc(CO)3]
[2]; HT1080 xenograft
  tumor uptake: 1-3 % ID/g
[2]; mouse, in vivo
  liver uptake: 12-18 % ID/g

## Cy5-X-e6-XPLGLAG-r9-Xk(Cy5)
[3]
  increase of fluorescence intensity upon cleavage by MMP-9: 3.9 fold

## Cy7-X-e6-XPLGLAG-r9-Xk(Cy5)
[3]; FRET substrate
  increase in ratio of 650 to 770 nm emissions upon cleavage: 6.6 -fold

## EDDDDKA-aca-R9-aca-C(Fl)-CONH2 (EDDDDKAXRRRRRRRRRXX; aminocaproic linkers, fluorescein, C-terminal amide; Description of Artificial Sequence:peptide designed to be substrate for enterokinase; Xaa = aminohexanoic acid (aminocaproic acid); Xaa = cysteinamide modified by fluorescein (Fl))
[4]
  time to almost complete cleavage by enterokinase: 15 min

## [11-kDa PEG]-X-e9-XPLG*LAG-r9-Xk(Cy5)
[5]
  tumor SUV ratio cleavable vs control: 3.1

## cyclic[succinoyl-PLGLAG-c(11 KDa-mPEG)-e9-XPLGLAG-r9-K]-k(Cy5)
[6]; compared to linear peptide with single cleavage site
  decrease of tumor signal vs linear peptide: 2 factor
[6]; mouse, in vivo
  increase of liver signal vs linear peptide: ~10 factor
